Legend:
A549 = test: Potentiation assay (MTS, 72 hours); format: cell-based, human; conditions: IC50(cytotoxic agent alone) / IC50(combination treatment)
Procedure: (§1) 5 × 10^3 cells per well were seeded in 96-well plates and incubated overnight. […] The effect on cell proliferation was determined using a CellTiter 96 AQueous One Solution Cell Proliferation Assay (MTS, Promega).

Colo205 = test: Potentiation assay (MTS, 72 hours); format: cell-based, human; conditions: IC50(cytotoxic agent alone) / IC50(combination treatment)
Procedure: as §1

H460 = test: Potentiation assay (MTS, 72 hours); format: cell-based, human; conditions: IC50(cytotoxic agent alone) / IC50(combination treatment)
Procedure: as §1

PC3 = test: Potentiation assay (MTS, 72 hours); format: cell-based, human; conditions: IC50(cytotoxic agent alone) / IC50(combination treatment)
Procedure: as §1

SW620 = test: Potentiation assay (MTS, 72 hours); format: cell-based, human; conditions: IC50(cytotoxic agent alone) / IC50(combination treatment)
Procedure: as §1

HT29 = test: Potentiation assay (MTS, 72 hours); format: cell-based, human; conditions: IC50(cytotoxic agent alone) / IC50(combination treatment)
Procedure: as §1

NCI-H520 = test: Potentiation assay (MTS, 72 hours); format: cell-based, human; conditions: IC50(cytotoxic agent alone) / IC50(combination treatment)
Procedure: as §1

HCT116 = test: Potentiation assay (MTS, 72 hours); format: cell-based, human; conditions: IC50(cytotoxic agent alone) / IC50(combination treatment)
Procedure: as §1

Chk1 = target: T1, Chk1 (Homo sapiens, UniProt O14757); test: In vitro kinase assay, Chk1; format: biochemical; conditions: for LE: ligand efficiency, Chk1
T1 sequence (O14757 1-476): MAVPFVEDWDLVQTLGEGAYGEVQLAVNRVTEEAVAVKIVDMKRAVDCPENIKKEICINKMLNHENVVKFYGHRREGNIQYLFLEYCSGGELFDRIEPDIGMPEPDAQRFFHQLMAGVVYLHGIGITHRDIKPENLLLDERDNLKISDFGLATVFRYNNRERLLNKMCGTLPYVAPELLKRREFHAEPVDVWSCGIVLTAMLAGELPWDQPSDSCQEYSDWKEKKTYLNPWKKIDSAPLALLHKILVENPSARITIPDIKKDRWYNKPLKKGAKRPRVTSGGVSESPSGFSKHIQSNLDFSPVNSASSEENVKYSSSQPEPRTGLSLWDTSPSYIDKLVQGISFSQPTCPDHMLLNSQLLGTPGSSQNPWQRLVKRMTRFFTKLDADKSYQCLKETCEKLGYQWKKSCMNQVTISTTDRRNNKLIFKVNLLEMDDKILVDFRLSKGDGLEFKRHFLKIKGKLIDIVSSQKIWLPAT
Procedure: Kinase assays were performed as previously described.

SW620 xenograft = SW620 xenograft antitumor efficacy; conditions: for Median TTE: SW620, 100 mg/kg irinotecan alone (V158411 0 mg/kg); for %TGD / T-C: SW620, 100 mg/kg irinotecan alone
From the text: (§2) Xenograft studies were undertaken by Charles River Laboratories Discovery Services, North Carolina. On the day of tumor cell implant, Colo205 cells were harvested and resuspended in 50% Matrigel matrix (BD Biosciences) in PBS at a concentration of 5 × 10^6 cells/mL. Each test mouse received 1 × 10^6 Colo205 cells implanted subcutaneously (SC) in the flank of female athymic nude mice (HRLN or NCr nu/nu), and tumor growth was monitored as the average size approached 100-150 mm^3. The SW620 tumor line was maintained by serial SC transplantation in female athymic nude mice (HRLN nu/nu). Tumor fragments, approximately 1 mm^3 each, were implanted SC into the right flank of each animal and allowed to grow towards a target size of 100-150 mm^3. On day 1 of the study, tumors were randomized into treatment groups before compound administration.
(§3) V158411 was formulated in D5W and administered via IV injection into the tail vein. Cyclic treatment regimens were followed and treatment ranged from 2-3 cycles.
(§4) Tumor size was measured with electronic calipers and tumor volume calculated according to the formula ((width × width) × length) /2.
(§5) The study endpoint was defined as a tumor volume of 750 mm^3 for Colo205 or 1500 mm^3 for SW620, or day 60, whichever came first. Each animal was euthanized when its' tumor reached this endpoint. The time to endpoint (TTE) for each mouse was calculated from the equation TTE = (log10(endpoint volume)-b)/m where b is the intercept and m the slope of the line obtained by linear regression of a log-transformed tumor growth data set.

Colo205 xenografts = test: Colo205 xenograft antitumor efficacy; format: in vivo; conditions: Colo205, 75 mg/kg IP irinotecan alone (V158411 0 mg/kg)
From the text: as §2, §3, §4, §5

SMILES	Fold Potentiation by V158411 (400nM) (A549) [fold]	Fold Potentiation by V158411 (400nM) (Colo205) [fold]	Fold Potentiation by V158411 (400nM) (H460) [fold]	Fold Potentiation by V158411 (400nM) (PC3) [fold]	Fold Potentiation by V158411 (400nM) (SW620) [fold]	Fold Potentiation by V158411 (400nM) (HT29) [fold]	Fold Potentiation by V158411 (400nM) (NCI-H520) [fold]	Fold Potentiation by V158411 (400nM) (HCT116) [fold]	IC50 (Chk1) [µM]	also measured
CC[C@@]1(O)C(=O)OCc2c1cc1n(c2=O)Cc2cc3ccccc3nc2-1 [Camptothecin]	0.7	6.0	0.8	6.3	10.6	11.4	1.8	0.8	–	–
O=c1[nH]cccc1-c1nc2ccccc2[nH]1 [VER-154637]	–	–	–	–	–	–	–	–	~100	LE (Chk1): > 0.30
Cn1cc(NC(=O)c2c[nH]c(=O)c(-c3cc4ccccc4[nH]3)c2)cn1 [VER-155175]	–	–	–	–	–	–	–	–	> 400	Chk1 IC50 (Chk1): disappointing affinity
CCNC(=O)c1c[nH]c(=O)c(-c2cc3ccccc3[nH]2)c1 [VER-154931]	–	–	–	–	–	–	–	–	4.2	Chk1 IC50 (Chk1): low μM inhibitor
O=C(Nc1cnn(Cc2ccccc2)c1)c1c[nH]c(=O)c(-c2cc3ccccc3[nH]2)c1 [VER-155422]	–	–	–	–	–	–	–	–	0.017	LE (Chk1): 0.35
CCc1c2c(nc3ccc(OC(=O)N4CCC(N5CCCCC5)CC4)cc13)-c1cc3c(c(=O)n1C2)COC(=O)[C@]3(O)CC [Irinotecan, reference compound]	–	–	–	–	–	–	–	–	–	Median TTE (SW620 xenograft; study with 30 mg/kg V158411, endpoint 1500 mm^3): 24.1 days; Median TTE (SW620 xenograft; study with 60 mg/kg V158411, endpoint 1500 mm^3): 24.1 days; %TGD (SW620 xenograft; study with 30 mg/kg V158411): 81%; T-C (SW620 xenograft; study with 30 mg/kg V158411): 10.8; %TGD (SW620 xenograft; study with 60 mg/kg V158411): 75%; T-C (SW620 xenograft; study with 60 mg/kg V158411): 10.3; %TGD (Colo205 xenografts): 78%; T-C (Colo205 xenografts): 15.5; Median TTE (Colo205 xenografts; q7d 3 cycles, endpoint 750 mm^3): 35.4 days
Nc1ccn([C@@H]2O[C@H](CO)[C@@H](O)C2(F)F)c(=O)n1 [Gemcitabine]	4.5	8.4	4.5	6.7	3.0	27.1	8.9	1.5	–	–
N.N.[Cl][Pt][Cl] [Cisplatin]	0.8	5.3	0.7	1.7	2.5	10.1	1.9	0.6	–	–
O=C(Nc1c[nH]c(=O)c(-c2cc3ccccc3[nH]2)c1)c1cnn(Cc2ccccc2)c1 [VER-155991]	–	–	–	–	–	–	–	–	0.0076	increase in potency (Chk1; Chk1 IC50, inversion of the amide linker, versus VER-155422): 2 fold
CCc1c2c(nc3ccc(O)cc13)-c1cc3c(c(=O)n1C2)COC(=O)[C@]3(O)CC [SN38]	–	> 10	1.0	> 10	7.6	18.7	–	1.3	–	–
